Data taken from ChEMBL document CHEMBL5724696, “Autophagy assay results for EUbOPEN Chemogenomics Library” (2024).

Legend:
Format in all cases: functional, Homo sapiens
[1] = system: U2OS; test: (§1) Here: values are normalized to the negative (DMSO; defined as 0% autophagy induction) and positive (250nM Torin1; mTOR inhibitor; defined as maximal inducer of autophagy = 100%) control compounds and represented as % of autophagy induction. […] The impact of autophagy induction on cells is complex and depends on the affected target. As such, the magnitude of a phenotype may not be equally mirrored in the %-value of autophagy induction and vice versa. The dynamics of the induction may indicate the mode of activation: e.g. activation via phosphorylation or a signaling cascade may occur fast, while activation via transcription factors may take considerably longer. […] Of note, treatment concentrations may be sub-optimal for specific compounds, leading to false negative annotations.; conditions: Culturing Media DMEM, 1 % Penicillin/Streptomycin, 10% Fetal bovin serum Add-On: No, Screening Media Control DMEM, Screening Media Samples DMEM
[2] = system: TERT-RPE1; test: as §1; conditions: Culturing Media DMEM/F12 (1:1), 1 % Penicillin/Streptomycin, 10% Fetal bovin serum Add-On: No, Screening Media Control DMEM/F12 (1:1), Screening Media Samples DMEM/F12 (1:1)
[3] = system: U2OS; test: as §1; conditions: Culturing Media DMEM, 1 % Penicillin/Streptomycin, 10% Fetal bovin serum Add-On: No, Screening Media Control DMEM, Screening Media Samples DMEM; remark: listed apart in the source
[4] = Compound Concentration 0.5 uM, Timepoint 12 hours
[5] = Compound Concentration 0.5 uM, Timepoint 24 hours
[6] = Compound Concentration 0.5 uM, Timepoint 36 hours
[7] = Compound Concentration 0.5 uM, Timepoint 60 hours
[8] = Compound Concentration 2 uM, Timepoint 12 hours
[9] = Compound Concentration 2 uM, Timepoint 24 hours
[10] = Compound Concentration 2 uM, Timepoint 36 hours
[11] = Compound Concentration 2 uM, Timepoint 60 hours
[12] = Compound Concentration 10 uM, Timepoint 12 hours
[13] = Compound Concentration 10 uM, Timepoint 24 hours
[14] = Compound Concentration 10 uM, Timepoint 36 hours
[15] = Compound Concentration 10 uM, Timepoint 60 hours

Row | Structure (SMILES) | autophagy induction [1, 4] | autophagy induction [1, 5] | autophagy induction [1, 6] | autophagy induction [1, 7] | autophagy induction [1, 8] | autophagy induction [1, 9] | autophagy induction [1, 10] | autophagy induction [1, 11] | autophagy induction [1, 12] | autophagy induction [1, 13] | autophagy induction [1, 14] | autophagy induction [1, 15] | autophagy induction [2, 4] | autophagy induction [2, 5] | autophagy induction [2, 6] | autophagy induction [2, 7] | autophagy induction [2, 8] | autophagy induction [2, 9] | autophagy induction [2, 10] | autophagy induction [2, 11] | also measured
1 | CN(C(=O)Cc1ccc(Cl)c(Cl)c1)C(CN1CCCC1)c1cccc(OCC(=O)O)c1.Cl (stereo not drawn) | 2.144% | -2.707% | 1.07% | 1.175% | -9.959% | -4.957% | -10.0899% | -9.274% | -7.228% | -6.505% | 0.1565% | 0.07233% | -10.9051% | -12.2301% | -15.6398% | -20.341% | -5.691% | -6.772% | -9.058% | -11.2679% | autophagy induction [2, 12]: -5.196%; autophagy induction [2, 13]: -4.57%; autophagy induction [2, 14]: -3.728%; autophagy induction [2, 15]: -2.992%; autophagy induction [3, 4]: -12.8922%; autophagy induction [3, 5]: -7.849%; autophagy induction [3, 6]: -3.698%; autophagy induction [3, 7]: -1.542%; autophagy induction [3, 8]: -9.267%; autophagy induction [3, 9]: -3.553%; autophagy induction [3, 10]: -1.479%; autophagy induction [3, 11]: -2.0456%; autophagy induction [3, 12]: -0.2023%; autophagy induction [3, 13]: 1.762%; autophagy induction [3, 14]: 0.1182%; autophagy induction [3, 15]: 0.3636%
2 | CN(C)S(=O)(=O)c1ccc(NC(=S)N2CCC(C(O)(c3ccccc3)c3ccccc3)CC2)cc1 | 4.873% | 8.285% | -1.545% | -6.741% | -9.723% | -10.0932% | -2.641% | -5.443% | -2.358% | -3.276% | -0.5558% | -1.95% | -8.089% | -8.809% | -7.846% | -8.279% | -6.98% | -8.186% | -8.002% | -9.897% | autophagy induction [2, 12]: -4.6942%; autophagy induction [2, 13]: -5.029%; autophagy induction [2, 14]: -1.466%; autophagy induction [2, 15]: -2.059%; autophagy induction [3, 4]: -3.164%; autophagy induction [3, 5]: 1.478%; autophagy induction [3, 6]: 0.3125%; autophagy induction [3, 7]: 1.161%; autophagy induction [3, 8]: -4.133%; autophagy induction [3, 9]: -2.924%; autophagy induction [3, 10]: -1.588%; autophagy induction [3, 11]: -1.351%; autophagy induction [3, 12]: -4.693%; autophagy induction [3, 13]: -0.2636%; autophagy induction [3, 14]: 0.0362%; autophagy induction [3, 15]: -2.232%
3 | CC(C)NC(=O)c1ccc(C#Cc2ccncc2)cn1 | 0.5322% | 0.2252% | -0.5555% | 0.1744% | 1.689% | 1.76% | 0.3174% | -4.895% | -23.095% | -7.509% | -0.1897% | 10.5553% | -8.654% | -9.257% | -14.0532% | -16.4507% | -4.036% | -5.1239% | -6.815% | -8.286% | autophagy induction [2, 12]: 1.565%; autophagy induction [2, 13]: 2.778%; autophagy induction [2, 14]: 9.008%; autophagy induction [2, 15]: 16.9694%; autophagy induction [3, 4]: -9.113%; autophagy induction [3, 5]: -5.012%; autophagy induction [3, 6]: -3.818%; autophagy induction [3, 7]: -1.861%; autophagy induction [3, 8]: -10.7877%; autophagy induction [3, 9]: -3.358%; autophagy induction [3, 10]: -2.622%; autophagy induction [3, 11]: -1.746%; autophagy induction [3, 12]: -0.7026%; autophagy induction [3, 13]: -0.9948%; autophagy induction [3, 14]: -1.134%; autophagy induction [3, 15]: -0.8185%
